These results are taken from patent US10787442B2, “Modulators of indoleamine 2,3-dioxygenase” (GLAXOSMITHKLINE INTELLECTUAL PROPERTY DEVELOPMENT LIMITED, priority 2016, dated 2020).

One series deals with PAN02 pancreatic cells. Particulars: cited from earlier work.
In another series the target is T1, ePL tagged IDO1 (Homo sapiens, UniProt P14902).
T1 construct: expressed in transfected cells; host or cells: HeLa cells transduced with BacMam virus
The series can be described thus: CETSA (Cellular Thermal Shifting assay). It counts as binding. The settings on record: Hela cells, 3 hours at 37° C., heated at 53° C. for 3 min. How it is done:
Cellular Thermal Shifting assays were used to directly monitor the ligand binding to target proteins in cells. Hela cells were transduced with BacMam virus expressing ePL tagged IDO1 overnight. The cells were then plated over the compounds for 3 hours at 37° C. in cell culture medium containing 1% FBS. The plates were then sealed and heated at 53° C. for 3 min. InCell Hunter reagents were added and luminescence was read in 90 min.

In series [1] the test system is human peripheral blood mononuclear cells (PBMC). Kind of series: PBMC cytotoxicity assay (CellTiter-Glo). It counts as cell-based. Particulars: cytotoxicity in stimulated PBMC, recorded as pCC50. In general terms: Cellular ATP, detected with luciferase, serves as a proxy for viable cell number.
Series [2] has as its system human epithelial HeLa cells. Kind of series: HeLa cytotoxicity assay (CellTiter-Glo). It counts as cell-based. Particulars: cytotoxicity in stimulated HeLa cells, recorded as pCC50. On the procedure: (§1) Compounds of the present invention were tested via high-throughput cellular assays utilizing detection of kynurenine via mass spectrometry and cytotoxicity as end-points. […] Compounds with IDO1 inhibitory properties decreased the amount of kynurenine produced by the cells via the tryptophan catabolic pathway. Cellular toxicity due to the effect of compound treatment was measured using CellTiter-Glo® reagent (CTG) (Promega Corporation, Madison, Wis.), which is based on luminescent detection of ATP, an indicator of metabolically active cells.
(§2) In preparation for the assays, test compounds were serially diluted 3-fold in DMSO from a typical top concentration of 1 mM or 5 mM and plated at 0.5 μL in 384-well, polystyrene, clear bottom, tissue culture treated plates with lids (Greiner Bio-One, Kremsmünster, Austria) to generate 11-point dose response curves. Low control wells (0% kynurenine or 100% cytotoxicity) contained either 0.5 μL of DMSO in the presence of unstimulated (−IFN-γ) HeLa cells for the mass spectrometry assay or 0.5 μL of DMSO in the absence of cells for the cytotoxicity assay, and high control wells (100% kynurenine or 0% cytotoxicity) contained 0.5 μL of DMSO in the presence of stimulated (+IFN-γ) HeLa cells for both the mass spectrometry and cytotoxicity assays.
(§3) Frozen stocks of HeLa cells were washed and recovered in DMEM high glucose medium with HEPES (Thermo Fisher Scientific, Inc., Waltham, Mass.) supplemented with 10% v/v certified fetal bovine serum (FBS) (Thermo Fisher Scientific, Inc., Waltham, Mass.), and 1× penicillin-streptomycin antibiotic solution (Thermo Fisher Scientific, Inc., Waltham, Mass.). The cells were diluted to 100,000 cells/mL in the supplemented DMEM medium. 50 μL of either the cell suspension, for the mass spectrometry assay, or medium alone, for the cytotoxicity assay, were added to the low control wells, on the previously prepared 384-well compound plates, resulting in 5,000 cells/well or 0 cells/well respectively. IFN-γ was added to the remaining cell suspension at a final concentration of 10 nM, and 50 μL of the stimulated cells were added to all remaining wells on the 384-well compound plates. The plates, with lids, were then placed in a 37° C., 5% CO2 humidified incubator for 2 days.
(§4) Following incubation, the 384-well plates were removed from the incubator and allowed to equilibrate to room temperature for 30 minutes. For the cytotoxicity assay, CellTiter-Glo® was prepared according to the manufacturer's instructions, and 10 μL were added to each plate well. After a twenty minute incubation at room temperature, luminescence was read on an EnVision® Multilabel Reader (PerkinElmer Inc., Waltham, Mass.). For the mass spectrometry assay, 10 μL of supernatant from each well of the compound-treated plates were added to 40 μL of acetonitrile, containing 10 μM of an internal standard for normalization, in 384-well, polypropylene, V-bottom plates (Greiner Bio-One, Kremsmünster, Austria) to extract the organic analytes. Following centrifugation at 2000 rpm for 10 minutes, 10 μL from each well of the acetonitrile extraction plates were added to 90 μL of sterile, distilled H2O in 384-well, polypropylene, V-bottom plates for analysis of kynurenine and the internal standard on the RapidFire 300 (Agilent Technologies, Santa Clara, Calif.) and 4000 QTRAP MS (SCIEX, Framingham, Mass.). MS data were integrated using Agilent Technologies' RapidFire Integrator software, and data were normalized for analysis as a ratio of kynurenine to the internal standard.

Series [3] addresses indoleamine 2, 3-dioxygenase (IDO1) (Homo sapiens, UniProt P14902). Kind of series: IDO1 HeLa RapidFire MS Assay (kynurenine by mass spectrometry). In kind it is cell-based. The settings on record: HeLa cells stimulated with IFN-γ, 2 days; recorded as pIC50; read-out: IDO1 HeLa PXC50 (converted). How it is done:
IDO1 HeLa RapidFire MS Assay
as §1, §2, §3, §4

Setting [4] is: first value, read-out: pXC50_1 (converted).
Setting [5] is: second value, read-out: pXC50_2 (converted).

Like-named read-outs stand apart in the source and are kept apart here.

T1 sequence (P14902 whole entry): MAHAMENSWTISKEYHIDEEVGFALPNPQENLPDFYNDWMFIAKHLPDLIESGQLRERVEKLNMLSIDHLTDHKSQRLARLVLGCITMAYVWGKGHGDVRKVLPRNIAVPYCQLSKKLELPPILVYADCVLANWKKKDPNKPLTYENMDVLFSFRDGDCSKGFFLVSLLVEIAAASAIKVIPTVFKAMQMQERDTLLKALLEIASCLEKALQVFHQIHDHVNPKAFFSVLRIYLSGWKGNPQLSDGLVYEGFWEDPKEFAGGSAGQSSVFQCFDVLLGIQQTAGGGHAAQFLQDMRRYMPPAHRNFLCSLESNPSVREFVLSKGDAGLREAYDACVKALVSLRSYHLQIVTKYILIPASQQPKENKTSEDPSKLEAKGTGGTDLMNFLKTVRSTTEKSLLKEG
indoleamine 2, 3-dioxygenase (IDO1), sequence (P14902 whole entry): as above

With `NS(=O)(=O)NCCNc1nonc1C(=NO)Nc1ccc(F)c(Br)c1` [INCB204360], in the series on PAN02 pancreatic cells (immune-deficient mice), the “effect against the same tumor” value was “without effect”. In addition, in the series on PAN02 pancreatic cells (immunocompetent mice, orally dosed), the “inhibition of tumor growth” value is “significant dose-dependent inhibition of tumor growth”.
Consider `CC(C)CN(c1ncc([C@H](C)CC(=O)O)cc1Nc1ccc(C#N)cn1)C1CCOCC1` [Example 57, (3R)-3-{5-[(5-cyanopyridin-2-yl)amino]-6-[(2-methylpropyl)(oxan-4-yl)amino]pyridin-3-yl}butanoic acid], for which the EC50 on ePL tagged IDO1 (setting [4]) is 5010 nM; on ePL tagged IDO1 (setting [5]), 3090 nM. The “PBMC_TOX PXC50” value in series [1] is recorded as less than 5.0.
With `CC(C)CN(c1ncc([C@H](C)CC(=O)O)cc1Nc1nc(C(F)(F)F)ns1)C1CCOCC1` [Example 3, (R)-3-(6-(isobutyl(tetrahydro-2H-pyran-4-yl)amino)-5-((3-(trifluoromethyl)-1,2,4-thiadiazol-5-yl)amino)pyridin-3-yl)butanoic acid], the HELA_IDO1_TOX_PXC50 in series [2] is on record as less than 5. For the same molecule, the IC50 in series [3] is 10 nM. The EC50 at ePL tagged IDO1 (setting [4]) was 162 nM; on ePL tagged IDO1 (setting [5]), 186 nM. Further, the “PBMC_TOX PXC50” value in series [1] is less than 5.0.
